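Step 1: Grow cells in 96-well plates. Step 2: Expose to compound for 48 hours at 5 concentrations. Step 3: Interpolate endpoints linearly; if unreached, use highest concentration. Abbreviation: GI50, concentration required for 50% inhibition of growth.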 Calls of active or inactive are those of the source. Cut-off read from the data, not from the text of the source: active = GI50 up to about 1.1 µM and inactive = higher.
Tests used:
Test in all cases: inhibition of tumour cell growth, NCI panel, 48 h
[1] = tested on: SR
[2] = tested on: DLD-1
[3] = tested on: SF-539
[4] = tested on: OVCAR-5
[5] = tested on: CCRF-CEM
[6] = tested on: SW-620
[7] = tested on: EKVX
[8] = tested on: A498
[9] = tested on: A549
[10] = tested on: KM12
[11] = tested on: UACC-257
[12] = tested on: SF-268
[13] = tested on: HOP-92
[14] = tested on: SK-MEL-28
[15] = tested on: NCI-H460
[16] = tested on: KM-20L2
[17] = tested on: LXFL 529
[18] = tested on: SNB-75
[19] = tested on: OVCAR-4
[20] = tested on: SK-MEL-2
[21] = tested on: K562
[22] = tested on: HL-60
[23] = tested on: RXF 631
[24] = tested on: HCT-116
[25] = tested on: 786-0
[26] = tested on: CAKI-1
[27] = tested on: TK-10
[28] = tested on: SNB-78
[29] = tested on: NCI-H522
[30] = tested on: SF-295
[31] = tested on: HOP-18
[32] = tested on: NCI-H226
[33] = tested on: RXF 393
[34] = tested on: OVCAR-8
[35] = tested on: SN12C
[36] = tested on: HCT-15
[37] = tested on: SK-OV-3
[38] = tested on: COLO 205
[39] = tested on: M14
[40] = tested on: ACHN
[41] = tested on: NCI-H23
[42] = tested on: M19-MEL
[43] = tested on: SNB-19
[44] = tested on: HCC 2998
[45] = tested on: HOP-62
[46] = tested on: UACC-62
[47] = tested on: RPMI-8226
[48] = tested on: MOLT-4
[49] = tested on: HT-29
[50] = tested on: SK-MEL-5
[51] = tested on: U-251
[52] = tested on: OVCAR-3
[53] = tested on: IGROV-1
[54] = tested on: DMS-273
[55] = tested on: UO-31
[56] = tested on: XF498
[57] = tested on: Malme-3M
[58] = tested on: DMS-114

Question: With `Cc1ccc(NC(=O)CC/C(CC(=O)C(C)(C)C)=N/NC(=O)C(N)=O)cc1C` as the molecule, how does the GI50 [1] read?
Answer: The GI50 was > 100 µM (inactive).

Question: What about the GI50 [2] of the same molecule?
Answer: Its GI50 is > 100 µM (inactive).

Question: What about the GI50 [3] of the same molecule?
Answer: The GI50 was > 100 µM (inactive).

Question: What about the GI50 [4] of the same molecule?
Answer: The GI50 was > 100 µM (inactive).

Question: What about the GI50 [5] of the same molecule?
Answer: The GI50 was > 100 µM (inactive).

Question: What about the GI50 [6] of the same molecule?
Answer: The GI50 was > 100 µM (inactive).

Question: And the GI50 [7]?
Answer: Its GI50 is > 100 µM (inactive).

Question: What about the GI50 [8] of the same molecule?
Answer: Its GI50 is > 100 µM (inactive).

Question: What about the GI50 [9] of the same molecule?
Answer: The GI50 was > 100 µM (inactive).

Question: What about the GI50 [10] of the same molecule?
Answer: The GI50 was > 100 µM (inactive).

Question: And the GI50 [11]?
Answer: Its GI50 is > 100 µM (inactive).

Question: What about the GI50 [12] of the same molecule?
Answer: The GI50 was > 100 µM (inactive).

Question: What about the GI50 [13] of the same molecule?
Answer: Its GI50 is > 100 µM (inactive).

Question: What about the GI50 [14] of the same molecule?
Answer: Its GI50 is > 100 µM (inactive).

Question: And the GI50 [15]?
Answer: Its GI50 is > 100 µM (inactive).

Question: And the GI50 [16]?
Answer: Its GI50 is > 100 µM (inactive).

Question: What about the GI50 [17] of the same molecule?
Answer: Its GI50 is > 100 µM (inactive).

Question: And the GI50 [18]?
Answer: The GI50 was > 100 µM (inactive).

Question: What about the GI50 [19] of the same molecule?
Answer: Its GI50 is > 100 µM (inactive).

Question: What about the GI50 [20] of the same molecule?
Answer: The GI50 was > 100 µM (inactive).

Question: And the GI50 [21]?
Answer: The GI50 was > 100 µM (inactive).

Question: What about the GI50 [22] of the same molecule?
Answer: Its GI50 is > 100 µM (inactive).

Question: What about the GI50 [23] of the same molecule?
Answer: Its GI50 is > 100 µM (inactive).

Question: What about the GI50 [24] of the same molecule?
Answer: Its GI50 is > 100 µM (inactive).

Question: What about the GI50 [25] of the same molecule?
Answer: The GI50 was > 100 µM (inactive).

Question: What about the GI50 [26] of the same molecule?
Answer: Its GI50 is > 100 µM (inactive).

Question: And the GI50 [27]?
Answer: Its GI50 is > 100 µM (inactive).

Question: What about the GI50 [28] of the same molecule?
Answer: The GI50 was > 100 µM (inactive).

Question: And the GI50 [29]?
Answer: The GI50 was > 100 µM (inactive).

Question: And the GI50 [30]?
Answer: Its GI50 is > 100 µM (inactive).

Question: And the GI50 [31]?
Answer: The GI50 was > 100 µM (inactive).

Question: And the GI50 [32]?
Answer: The GI50 was > 100 µM (inactive).

Question: And the GI50 [33]?
Answer: Its GI50 is > 100 µM (inactive).

Question: And the GI50 [34]?
Answer: Its GI50 is > 100 µM (inactive).

Question: And the GI50 [35]?
Answer: Its GI50 is > 100 µM (inactive).

Question: What about the GI50 [36] of the same molecule?
Answer: The GI50 was over 100 µM.

Question: What about the GI50 [37] of the same molecule?
Answer: The GI50 was > 100 µM (inactive).

Question: And the GI50 [38]?
Answer: The GI50 was > 100 µM (inactive).

Question: And the GI50 [39]?
Answer: The GI50 was > 100 µM (inactive).

Question: What about the GI50 [40] of the same molecule?
Answer: Its GI50 is > 100 µM (inactive).

Question: And the GI50 [41]?
Answer: The GI50 was > 100 µM (inactive).

Question: What about the GI50 [42] of the same molecule?
Answer: Its GI50 is > 100 µM (inactive).

Question: What about the GI50 [43] of the same molecule?
Answer: Its GI50 is > 100 µM (inactive).

Question: And the GI50 [44]?
Answer: Its GI50 is > 100 µM (inactive).

Question: And the GI50 [45]?
Answer: The GI50 was > 100 µM (inactive).

Question: What about the GI50 [46] of the same molecule?
Answer: The GI50 was > 100 µM (inactive).

Question: And the GI50 [47]?
Answer: The GI50 was > 100 µM (inactive).

Question: What about the GI50 [48] of the same molecule?
Answer: The GI50 was > 100 µM (inactive).

Question: And the GI50 [49]?
Answer: Its GI50 is > 100 µM (inactive).

Question: What about the GI50 [50] of the same molecule?
Answer: The GI50 was > 100 µM (inactive).

Question: And the GI50 [51]?
Answer: Its GI50 is > 100 µM (inactive).

Question: What about the GI50 [52] of the same molecule?
Answer: Its GI50 is > 100 µM (inactive).

Question: What about the GI50 [53] of the same molecule?
Answer: Its GI50 is > 100 µM (inactive).

Question: And the GI50 [54]?
Answer: Its GI50 is > 100 µM (inactive).

Question: What about the GI50 [55] of the same molecule?
Answer: The GI50 was > 100 µM (inactive).

Question: What about the GI50 [56] of the same molecule?
Answer: Its GI50 is > 100 µM (inactive).

Question: What about the GI50 [57] of the same molecule?
Answer: Its GI50 is > 100 µM (inactive).

Question: What about the GI50 [58] of the same molecule?
Answer: Its GI50 is > 100 µM (inactive).

Question: `Clc1ccc(Nc2nc3ccccc3nc2-c2cccs2)cc1Cl` was tested. Which GI50 [1] did it give?
Answer: The GI50 was 22.8 µM (inactive).

Question: What about the GI50 [2] of the same molecule?
Answer: Its GI50 is 36.7 µM (inactive).

Question: And the GI50 [3]?
Answer: Its GI50 is 45.3 µM (inactive).

Question: And the GI50 [4]?
Answer: The GI50 was > 100 µM (inactive).

Question: And the GI50 [5]?
Answer: The GI50 was 27.2 µM (inactive).

Question: And the GI50 [6]?
Answer: The GI50 was 85.7 µM (inactive).

Question: And the GI50 [7]?
Answer: The GI50 was 69.5 µM (inactive).

Question: And the GI50 [9]?
Answer: Its GI50 is 29.9 µM (inactive).

Question: What about the GI50 [11] of the same molecule?
Answer: The GI50 was 34.4 µM (inactive).

Question: And the GI50 [12]?
Answer: Its GI50 is 36.3 µM (inactive).

Question: What about the GI50 [13] of the same molecule?
Answer: Its GI50 is 19.7 µM (inactive).

Question: And the GI50 [14]?
Answer: The GI50 was 28.7 µM (inactive).

Question: What about the GI50 [15] of the same molecule?
Answer: The GI50 was 22.7 µM (inactive).

Question: And the GI50 [16]?
Answer: Its GI50 is 34.6 µM (inactive).

Question: What about the GI50 [17] of the same molecule?
Answer: The GI50 was 38.9 µM (inactive).

Question: And the GI50 [18]?
Answer: The GI50 was 84.9 µM (inactive).

Question: And the GI50 [20]?
Answer: Its GI50 is > 100 µM (inactive).

Question: And the GI50 [22]?
Answer: Its GI50 is 12.2 µM (inactive).

Question: And the GI50 [23]?
Answer: The GI50 was 27.8 µM (inactive).

Question: And the GI50 [24]?
Answer: The GI50 was 23.4 µM (inactive).

Question: And the GI50 [25]?
Answer: Its GI50 is 35.7 µM (inactive).

Question: What about the GI50 [27] of the same molecule?
Answer: The GI50 was 42.1 µM (inactive).

Question: What about the GI50 [28] of the same molecule?
Answer: Its GI50 is 58.2 µM (inactive).

Question: What about the GI50 [30] of the same molecule?
Answer: Its GI50 is 40.4 µM (inactive).

Question: And the GI50 [31]?
Answer: The GI50 was 97.5 µM (inactive).

Question: What about the GI50 [32] of the same molecule?
Answer: Its GI50 is 34.1 µM (inactive).

Question: What about the GI50 [33] of the same molecule?
Answer: The GI50 was 22.6 µM (inactive).

Question: And the GI50 [34]?
Answer: The GI50 was 19.7 µM (inactive).

Question: And the GI50 [35]?
Answer: Its GI50 is 89.9 µM (inactive).

Question: And the GI50 [36]?
Answer: The GI50 was 10.3 µM.

Question: And the GI50 [37]?
Answer: The GI50 was > 100 µM (inactive).

Question: And the GI50 [38]?
Answer: The GI50 was 26.1 µM (inactive).

Question: And the GI50 [40]?
Answer: Its GI50 is 32.1 µM (inactive).

Question: What about the GI50 [41] of the same molecule?
Answer: Its GI50 is 37.8 µM (inactive).

Question: What about the GI50 [42] of the same molecule?
Answer: The GI50 was 57.8 µM (inactive).

Question: And the GI50 [43]?
Answer: The GI50 was 36 µM (inactive).

Question: What about the GI50 [44] of the same molecule?
Answer: The GI50 was 32.1 µM (inactive).

Question: What about the GI50 [45] of the same molecule?
Answer: Its GI50 is > 100 µM (inactive).

Question: What about the GI50 [46] of the same molecule?
Answer: The GI50 was 38.5 µM (inactive).

Question: What about the GI50 [47] of the same molecule?
Answer: The GI50 was 45.2 µM (inactive).

Question: What about the GI50 [48] of the same molecule?
Answer: Its GI50 is 14.8 µM (inactive).

Question: And the GI50 [49]?
Answer: Its GI50 is 25.3 µM (inactive).

Question: And the GI50 [51]?
Answer: Its GI50 is > 10 µM (inactive).

Question: What about the GI50 [52] of the same molecule?
Answer: Its GI50 is > 100 µM (inactive).

Question: What about the GI50 [54] of the same molecule?
Answer: The GI50 was 34 µM (inactive).

Question: And the GI50 [55]?
Answer: Its GI50 is 34.8 µM (inactive).

Question: And the GI50 [56]?
Answer: Its GI50 is 62.1 µM (inactive).

Question: What about the GI50 [57] of the same molecule?
Answer: The GI50 was > 100 µM (inactive).

From ChEMBL document CHEMBL1201862, “PubChem BioAssay data set” (2004)
